Source: patent US10139394B2, “Method for controlling cancer metastasis or cancer cell migration by modulating the cellular level of lysyl tRNA synthetase” (Medicinal Bioconvergence Research Center, priority 2008, dated 2018)

System: KRS and 67LR
Test: Co-immunoprecipitation of KRS with 67LR
Assay type: cell-based, human
Settings: 10 ug/ml of laminin for 1 hr; immunoprecipitation with 67LR antibody; FIG. 6
Description: FIGS. 1 to 6 show specific interaction between human KRS and laminin receptor. In FIG. 1, the interaction between full-length human KRS and 37LRP/p40 was determined by yeast two hybrid assay. AIMP1 and AIMP2, the two components of the multi-ARS complex, were used as positive and negative control, respectively. The positive interaction is indicated by blue colony formation on yeast medium containing X-gal. In FIG. 2, 37LRP was synthesized by in vitro translation in the presence of [^35S] methionine and subjected to pull-down with GST-KRS or GST. 37LRP co-precipitated with GST-KRS was detected by autoradiography. In FIG. 3, The peptide regions of KRS and 37LRP involved in their interaction was determined by yeast two hybrid assay as above. […] Myc-KRS was immunoprecipitated with anti-Myc antibody and co-precipitated 67LR and 37LRP were determined by immunoblotting. […] The cells were separated to cytoplasmic and membrane fractions and immunoprecipitated with anti-Myc antibody and co-precipitation of 37LRP and 67LR was determined by Western blotting. […]
In FIG. 7, A549 cells were treated with laminin (10 ug/ml) and the level of 67LR, 37LRP and KRS was determined by Western blotting at the indicated times. […] Myc-KRS was immunoprecipitated and co-precipitation of 67LR was determined by Western blotting. […]

With “laminin: laminin (Engelbreth-Holm-Swarm murine sarcoma) from Sigma” the “binding of 67LR and KRS” value was “increased”.
